Reference: ChEMBL document CHEMBL5724914, “Linking interpersonal differences in gut microbiota composition and drug biotransformation activity” (2024)

Key:
[1] = (§1) The drug is tested on WLS-350 corresponding to human gut metagenome with ENA study accession number: PRJEB37062 and ENA sample accession number: ERS12561789 for biotransformation under anaerobic condition. The drug concentrations were measured over 9 timepoints collected between 0 and 24 hours of incubation by liquid-chromatography-coupled mass spectrometry (LC–MS); conditions: 2 µM
[2] = human gut metagenome, 24 h, 2 µM
[3] = human gut metagenome, 24 h, 2 µM; remark: listed apart in the source
[4] = as §1, with “Z-001” for “WLS-350”, “mouse” for “human”, “ERS12561801” for “ERS12561789”; conditions: 2 µM
[5] = human gut metagenome, 24 h, 2 µM; remark: listed apart in the source
[6] = human gut metagenome, 24 h, 2 µM; remark: listed apart in the source
[7] = human gut metagenome, 24 h, 2 µM; remark: listed apart in the source
[8] = human gut metagenome, 24 h, 2 µM; remark: listed apart in the source
[9] = as §1, with “Z-008” for “WLS-350”, “to” for “to human gut”, “ERS12561808” for “ERS12561789”; conditions: 2 µM
Also: call rule not given here.

| Structure (SMILES) | Bacterial Biotransformation [1] | Bacterial Biotransformation [2] | Bacterial Biotransformation [3] | Bacterial Biotransformation [4] | Bacterial Biotransformation [5] | Bacterial Biotransformation [6] | Bacterial Biotransformation [7] | Bacterial Biotransformation [8] | Bacterial Biotransformation [9] |
| --- | --- | --- | --- | --- | --- | --- | --- | --- | --- |
| CN1CCC(OC(c2ccccc2)c2ccccc2)CC1 | Compound NOT metabolized | Compound NOT metabolized | Compound NOT metabolized | Compound NOT metabolized | Compound NOT metabolized | Compound metabolized | Compound metabolized | Compound metabolized | Compound NOT metabolized |
| CCOC(=O)[C@H](CCc1ccccc1)N[C@@H](C)C(=O)N1Cc2ccccc2C[C@H]1C(=O)O | Compound NOT metabolized | Compound metabolized | Compound metabolized | Compound NOT metabolized | Compound metabolized | Compound metabolized | Compound metabolized | Compound metabolized | Compound NOT metabolized |
| N[C@@H](Cc1ccc(N(CCCl)CCCl)cc1)C(=O)O | Compound NOT metabolized | Compound metabolized | Compound metabolized | Compound metabolized | Compound metabolized | – | – | Compound NOT metabolized | – |
| CCCCC(=O)O[C@]1(C(=O)CO)[C@@H](C)C[C@H]2[C@@H]3CCC4=CC(=O)C=C[C@]4(C)[C@@]3(F)[C@@H](O)C[C@@]21C [BETAMETHASONE VALERATE] | Compound NOT metabolized | Compound metabolized | Compound metabolized | – | Compound metabolized | Compound metabolized | Compound NOT metabolized | Compound metabolized | – |
| CC(=O)OCC(=O)[C@@]1(OC(C)=O)[C@@H](C)C[C@H]2[C@@H]3C[C@H](F)C4=CC(=O)C=C[C@]4(C)[C@@]3(F)[C@@H](O)C[C@@]21C [DIFLORASONE DIACETATE] | Compound metabolized | Compound metabolized | Compound metabolized | Compound metabolized | Compound metabolized | Compound metabolized | Compound metabolized | Compound metabolized | Compound metabolized |
| CN(C)CCC=C1c2ccccc2COc2ccccc21 [DOXEPIN] | Compound NOT metabolized | Compound metabolized | Compound metabolized | Compound NOT metabolized | Compound NOT metabolized | Compound metabolized | Compound metabolized | Compound metabolized | Compound NOT metabolized |
| COCCCC/C(=N\OCCN)c1ccc(C(F)(F)F)cc1.O=C(O)/C=C\C(=O)O [FLUVOXAMINE MALEATE] | Compound NOT metabolized | Compound NOT metabolized | Compound NOT metabolized | Compound metabolized | Compound metabolized | Compound NOT metabolized | Compound NOT metabolized | Compound NOT metabolized | – |
| CN1CCN(C2=Nc3ccccc3Oc3ccc(Cl)cc32)CC1.O=C(O)CCC(=O)O [LOXAPINE SUCCINATE] | Compound NOT metabolized | Compound NOT metabolized | Compound NOT metabolized | – | Compound NOT metabolized | Compound NOT metabolized | Compound NOT metabolized | Compound NOT metabolized | – |
| N#Cc1ccc2c(c1)N(CCCN1CCC(O)CC1)c1ccccc1S2 [PERICIAZINE] | Compound NOT metabolized | Compound NOT metabolized | Compound NOT metabolized | – | Compound NOT metabolized | Compound metabolized | Compound metabolized | Compound metabolized | – |
| O=C([O-])C[C@H](O)C[C@H](O)/C=C/c1c(C2CC2)nc2ccccc2c1-c1ccc(F)cc1.O=C([O-])C[C@H](O)C[C@H](O)/C=C/c1c(C2CC2)nc2ccccc2c1-c1ccc(F)cc1.[Ca+2] [PITAVASTATIN CALCIUM] | Compound NOT metabolized | Compound metabolized | Compound metabolized | – | Compound metabolized | Compound metabolized | Compound metabolized | Compound NOT metabolized | – |

The remaining lines, values ahead:

| Bacterial Biotransformation [1] | Bacterial Biotransformation [2] | Bacterial Biotransformation [3] | Bacterial Biotransformation [4] | Bacterial Biotransformation [5] | Bacterial Biotransformation [6] | Bacterial Biotransformation [7] | Bacterial Biotransformation [8] | Bacterial Biotransformation [9] | Structure (SMILES) |
| --- | --- | --- | --- | --- | --- | --- | --- | --- | --- |
| Compound metabolized | Compound metabolized | Compound metabolized | Compound NOT metabolized | Compound metabolized | Compound metabolized | Compound metabolized | Compound metabolized | Compound NOT metabolized | CC1=C(CC(=O)O)c2cc(F)ccc2/C1=C\c1ccc([S+](C)[O-])cc1 (centres undefined) |
| Compound NOT metabolized | Compound NOT metabolized | Compound NOT metabolized | – | Compound NOT metabolized | Compound NOT metabolized | Compound NOT metabolized | Compound NOT metabolized | – | CN(C)CCc1c[nH]c2ccc(CS(=O)(=O)N3CCCC3)cc12 [ALMOTRIPTAN] |
| Compound NOT metabolized | Compound NOT metabolized | Compound metabolized | Compound NOT metabolized | Compound NOT metabolized | Compound NOT metabolized | Compound metabolized | Compound NOT metabolized | Compound NOT metabolized | CCN1CCCC1CNC(=O)c1cc(S(=O)(=O)CC)c(N)cc1OC (centres undefined) [AMISULPRIDE] |
| Compound NOT metabolized | Compound NOT metabolized | Compound NOT metabolized | Compound NOT metabolized | Compound metabolized | Compound NOT metabolized | Compound NOT metabolized | Compound metabolized | Compound NOT metabolized | CC(C)NCC(O)COc1ccc(CC(N)=O)cc1 (centres undefined) [ATENOLOL] |
| Compound metabolized | Compound metabolized | Compound metabolized | – | Compound metabolized | Compound metabolized | Compound metabolized | Compound metabolized | – | CC(=O)Oc1ccc(C(c2ccc(OC(C)=O)cc2)c2ccccn2)cc1 [BISACODYL] |
| Compound NOT metabolized | Compound metabolized | Compound metabolized | – | Compound metabolized | Compound metabolized | Compound metabolized | Compound metabolized | – | Cc1nc(Nc2ncc(C(=O)Nc3c(C)cccc3Cl)s2)cc(N2CCN(CCO)CC2)n1 [DASATINIB ANHYDROUS] |
| Compound NOT metabolized | Compound metabolized | Compound metabolized | Compound NOT metabolized | Compound metabolized | Compound metabolized | Compound metabolized | Compound metabolized | Compound metabolized | C[C@]12CCC(=O)C=C1[C@@H]1C[C@@H]1[C@H]1[C@@H]3[C@@H]4C[C@@H]4[C@@]4(CCC(=O)O4)[C@@]3(C)CC[C@@H]12 [DROSPIRENONE] |
| Compound metabolized | Compound metabolized | Compound metabolized | – | Compound metabolized | Compound NOT metabolized | Compound metabolized | Compound metabolized | – | CCOC(=O)C1=C(C)NC(C)=C(C(=O)OC)C1c1cccc([N+](=O)[O-])c1 (centres undefined) [NITRENDIPINE] |
| Compound NOT metabolized | Compound metabolized | – | Compound NOT metabolized | Compound metabolized | Compound NOT metabolized | Compound metabolized | Compound metabolized | Compound NOT metabolized | CNNCc1ccc(C(=O)NC(C)C)cc1 [PROCARBAZINE] |
| Compound metabolized | Compound NOT metabolized | – | Compound NOT metabolized | – | Compound NOT metabolized | Compound NOT metabolized | Compound metabolized | Compound NOT metabolized | CN(C/C=C/C#CC(C)(C)C)Cc1cccc2ccccc12 [TERBINAFINE] |
| Compound metabolized | Compound metabolized | Compound metabolized | Compound metabolized | Compound metabolized | – | Compound metabolized | – | Compound metabolized | N#Cc1ccc2[nH]cc(CCCCN3CCN(c4ccc5oc(C(N)=O)cc5c4)CC3)c2c1 [VILAZODONE] |
